Drawing on US20240368173A1, “TRICYCLIC GPR65 MODULATORS” (PATHIOS THERAPEUTICS LIMITED, priority 2021, published 2024), this text covers IC50 for ten compounds.

Some results are limits rather than exact numbers.

Chain of human recombinant GPR65 (Q8IYL9 whole entry): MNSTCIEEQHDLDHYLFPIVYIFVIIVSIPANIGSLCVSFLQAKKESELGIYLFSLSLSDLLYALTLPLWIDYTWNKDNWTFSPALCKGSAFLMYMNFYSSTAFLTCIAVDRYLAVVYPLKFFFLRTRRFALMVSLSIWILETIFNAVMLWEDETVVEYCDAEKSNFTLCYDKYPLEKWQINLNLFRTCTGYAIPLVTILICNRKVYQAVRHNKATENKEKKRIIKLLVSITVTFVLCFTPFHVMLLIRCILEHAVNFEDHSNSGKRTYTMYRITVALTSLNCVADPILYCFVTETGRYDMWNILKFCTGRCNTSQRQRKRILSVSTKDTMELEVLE

In the experiment the target is human recombinant GPR65 (Homo sapiens, UniProt Q8IYL9). The experiment is described as follows: Human GPR65 cAMP HTRF antagonist assay. Format: cell-based. The method in brief:
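1321N1 astrocytoma cells stably expressing hrGPR65, with IBMX and EDTA, were preincubated with compound 30 min at room temperature, then acid-activated at assay pH 7.2 (control pH 7.9) for 30 min. cAMP read by HTRF (665/620 nm ratio); IC50 from 4-parameter fit normalised to high/low controls.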
Consider `CC(C)Oc1cc(-c2cc(F)c(NC(=O)N3[C@H]4CC[C@@H]3c3n[nH]c(=O)cc3C4)cc2Cl)ccn1` [Compound 218, (6S,9R)-N-(5-Chloro-2-fluoro-4-(2-isopropoxypyridin-4-yl)phenyl)-3-oxo-3,5,6,7,8,9-hexahydro-2H-6,9-epiminocyclohepta[c]pyridazine-10-carboxamide], for which the IC50 is less than 500 nM.
Then `COc1ncc(-c2cc(F)c(NC(=O)N3[C@H]4CC[C@@H]3c3ccnc(F)c3C4)cc2Cl)cc1F` [Compound 219, (5R,8S)-N-(5-Chloro-2-fluoro-4-(5-fluoro-6-methoxypyridin-3-yl)phenyl)-1-fluoro-6,7,8,9-tetrahydro-5H-5,8-epiminocyclohepta[c]pyridine-10-carboxamide], with less than 500 nM; and `O=C(Nc1cc(Cl)c(-c2ccc(OCCN3CCCCC3)nc2)cc1F)N1[C@H]2CC[C@@H]1c1ccnc(F)c1C2` [Compound 220, (5R,8S)-N-(5-Chloro-2-fluoro-4-(6-(2-(piperidin-1-yl)ethoxy)pyridin-3-yl)phenyl)-1-fluoro-6,7,8,9-tetrahydro-5H-5,8-epiminocyclohepta[c]pyridine-10-carboxamide], with less than 500 nM; and `O=C(Nc1cc(Cl)c(-c2ccc(OC3CC3)nc2)cc1F)N1[C@H]2CC[C@@H]1c1n[nH]c(=O)cc1C2` [Compound 221, (6S,9R)-N-(5-Chloro-4-(6-cyclopropoxypyridin-3-yl)-2-fluorophenyl)-3-oxo-3,5,6,7,8,9-hexahydro-2H-6,9-epiminocyclohepta[c]pyridazine-10-carboxamide], with less than 500 nM.
Consider `O=C(Nc1cc(Cl)c(-c2ccc(OC3CC3)nc2)cc1F)N1[C@H]2CC[C@@H]1c1c[nH]c(=O)cc1C2` [Compound 222, (6S,9R)-N-(5-Chloro-4-(6-cyclopropoxypyridin-3-yl)-2-fluorophenyl)-3-oxo-3,5,6,7,8,9-hexahydro-2H-6,9-epiminocyclohepta[c]pyridine-10-carboxamide], for which the IC50 is less than 500 nM.
The figure for `O=C(Nc1cc(F)c(-c2ccc(C(F)(F)F)nc2)cc1F)N1[C@H]2CC[C@@H]1c1ccnc(F)c1C2` [Compound 223, (5R,8S)-N-(2,5-Difluoro-4-(6-(trifluoromethyl)pyridin-3-yl)phenyl)-1-fluoro-6,7,8,9-tetrahydro-5H-5,8-epiminocyclohepta[c]pyridine-10-carboxamide] is less than 500 nM.
Then `O=C(Nc1cc(Cl)c(F)cc1Oc1ccc2nonc2c1)N1[C@H]2CC[C@@H]1c1n[nH]c(=O)cc1C2` [Compound 224, (6S,9R)-N-(2-(Benzo[c][1,2,5]oxadiazol-5-yloxy)-5-chloro-4-fluorophenyl)-3-oxo-3,5,6,7,8,9-hexahydro-2H-6,9-epiminocyclohepta[c]pyridazine-10-carboxamide], with 500 to 5000 nM.
Then `O=C(Nc1cc(Cl)c(Oc2ccc(F)nc2)cc1F)N1[C@H]2CC[C@@H]1c1n[nH]c(=O)cc1C2` [Compound 225, (6S,9R)—N-(5-Chloro-2-fluoro-4-((6-fluoropyridin-3-yl)oxy)phenyl)-3-oxo-3,5,6,7,8,9-hexahydro-2H-6,9-epiminocyclohepta[c]pyridazine-10-carboxamide], with less than 500 nM.
For `O=C(Nc1cc(Cl)c(C(F)(F)F)cc1F)N1[C@@H]2CC[C@H]1C(F)(F)c1c2ccnc1F` [Compound 227, (5R,8S)-N-(5-Chloro-2-fluoro-4-(trifluoromethyl)phenyl)-1,9,9-trifluoro-6,7,8,9-tetrahydro-5H-5,8-epiminocyclohepta[c]pyridine-10-carboxamide], the concentration for half-maximal inhibition (IC50) was less than 500 nM.
The figure for `O=C(Nc1cc(Cl)c(C(F)(F)F)cc1F)N1[C@H]2CC[C@@H]1C(F)(F)c1c2ccnc1F` [Compound 228, (5S,8R)-N-(5-Chloro-2-fluoro-4-(trifluoromethyl)phenyl)-1,9,9-trifluoro-6,7,8,9-tetrahydro-5H-5,8-epiminocyclohepta[c]pyridine-10-carboxamide] is 500 to 5000 nM.
